Measurements from patent US20080114027A1, “Method for treating delirium” (priority 2006, published 2008).

How the values were obtained:
[1] = system: PDE-4; settings: cited from earlier work
[2] = biological target: PDE-10 (Homo sapiens, UniProt Q9Y233); settings: cited from earlier work
[3] = system: PDE-3; settings: cited from earlier work
[4] = system: rat tail-flick model; experiment: Anti-nociceptive pain testing, rat tail-flick model; assay type: in vivo, Male Sprague-Dawley (CD) rats; settings: 7.5 mg/kg i.p., magnitude and duration similar to morphine 1.3 mg/kg s.c., FIG. 1
[5] = biological target: PDE-11 (Homo sapiens, UniProt Q9HCR9); settings: cited from earlier work
Sequence of PDE-11 (Q9HCR9 whole entry): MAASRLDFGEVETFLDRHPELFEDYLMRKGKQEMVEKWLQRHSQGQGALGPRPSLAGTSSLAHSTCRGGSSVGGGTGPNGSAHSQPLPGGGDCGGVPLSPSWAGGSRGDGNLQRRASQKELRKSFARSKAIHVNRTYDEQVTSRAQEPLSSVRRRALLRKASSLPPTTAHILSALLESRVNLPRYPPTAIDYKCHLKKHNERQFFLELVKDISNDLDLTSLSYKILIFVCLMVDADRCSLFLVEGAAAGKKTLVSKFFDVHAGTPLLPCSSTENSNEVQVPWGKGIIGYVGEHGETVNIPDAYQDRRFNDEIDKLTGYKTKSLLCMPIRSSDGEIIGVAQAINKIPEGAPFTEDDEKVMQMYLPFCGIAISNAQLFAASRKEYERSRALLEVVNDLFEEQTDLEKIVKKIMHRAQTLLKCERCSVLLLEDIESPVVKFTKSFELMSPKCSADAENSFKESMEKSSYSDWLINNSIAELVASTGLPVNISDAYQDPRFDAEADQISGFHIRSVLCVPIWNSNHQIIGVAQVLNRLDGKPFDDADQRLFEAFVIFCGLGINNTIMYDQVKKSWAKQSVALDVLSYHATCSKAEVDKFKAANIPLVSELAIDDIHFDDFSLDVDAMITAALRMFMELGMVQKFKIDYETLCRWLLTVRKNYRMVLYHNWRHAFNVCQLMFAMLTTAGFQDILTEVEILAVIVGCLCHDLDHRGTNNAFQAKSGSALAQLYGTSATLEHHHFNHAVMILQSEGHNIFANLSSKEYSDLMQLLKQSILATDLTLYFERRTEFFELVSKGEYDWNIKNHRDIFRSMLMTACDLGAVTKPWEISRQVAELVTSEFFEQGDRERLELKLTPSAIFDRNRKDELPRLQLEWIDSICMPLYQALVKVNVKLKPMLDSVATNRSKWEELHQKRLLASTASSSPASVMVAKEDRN

Sequence of PDE-10 (Q9Y233 whole entry): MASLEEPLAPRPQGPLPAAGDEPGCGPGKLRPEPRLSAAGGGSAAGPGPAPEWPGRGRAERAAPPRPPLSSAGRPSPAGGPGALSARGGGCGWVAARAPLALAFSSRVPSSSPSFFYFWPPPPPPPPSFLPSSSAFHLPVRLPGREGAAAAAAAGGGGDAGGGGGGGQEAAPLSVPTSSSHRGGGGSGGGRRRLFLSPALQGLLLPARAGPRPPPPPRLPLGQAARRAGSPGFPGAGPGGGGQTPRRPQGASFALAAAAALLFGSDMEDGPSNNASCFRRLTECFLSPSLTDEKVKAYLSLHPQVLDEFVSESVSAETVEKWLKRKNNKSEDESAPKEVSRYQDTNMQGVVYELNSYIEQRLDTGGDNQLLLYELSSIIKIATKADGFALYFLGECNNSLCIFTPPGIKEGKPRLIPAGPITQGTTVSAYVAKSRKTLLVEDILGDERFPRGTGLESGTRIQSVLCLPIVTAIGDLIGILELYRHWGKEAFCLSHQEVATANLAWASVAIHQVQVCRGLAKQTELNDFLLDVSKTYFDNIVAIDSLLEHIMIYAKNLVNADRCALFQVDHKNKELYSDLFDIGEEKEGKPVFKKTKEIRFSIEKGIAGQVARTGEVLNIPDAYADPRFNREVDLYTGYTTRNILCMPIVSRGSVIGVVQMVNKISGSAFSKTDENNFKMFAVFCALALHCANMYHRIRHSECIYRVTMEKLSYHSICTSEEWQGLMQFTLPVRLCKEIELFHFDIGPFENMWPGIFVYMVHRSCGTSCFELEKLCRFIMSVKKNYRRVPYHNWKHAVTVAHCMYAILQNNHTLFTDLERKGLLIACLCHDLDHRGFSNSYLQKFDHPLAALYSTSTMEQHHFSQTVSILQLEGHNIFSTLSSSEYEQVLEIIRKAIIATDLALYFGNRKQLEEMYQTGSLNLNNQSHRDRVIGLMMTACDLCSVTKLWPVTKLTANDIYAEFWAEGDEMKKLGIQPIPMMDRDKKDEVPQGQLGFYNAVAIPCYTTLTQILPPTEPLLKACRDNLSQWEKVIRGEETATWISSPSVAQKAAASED

CC(C)C(=O)c1c(C(C)C)nn2ccccc12 [ibudilast, 2-methyl-1-(2-(1-methylethyl)pyrazolo(1,5-a)pyridin-3-yl)1-propanone]
PDE inhibitory activity [1]: most active
PDE inhibitory activity [2]: most active
PDE inhibitory activity [3]: most active
acute analgesic efficacy (tail-flick latency time) [4]: increased the latency time
PDE inhibitory activity [5]: most active
